In patent US8598086B2, “3-halo-(arly)-4-iminotetrahydropicolinates and their use as herbicides” (Dow AgroSciences, LLC., priority 2009, dated 2013):

Assays:
Type in all cases: in vivo
[1] = test system: sunflower (Helianthus annuus); experiment: Post-emergent Test I; details: 10 d after treatment, scale 0 (no activity) to 100 (complete plant death)
Description: (§1) Post-emergent Test I: Weed seeds were obtained from commercial suppliers and planted into 5″-round pots containing soilless media mix (Metro-Mix 360®, Sun Gro Horticulture Canada CM Ltd. Vancouver, British Columbia) 8-12 d prior to application and cultured in a greenhouse equipped with supplemental light sources to provide a 16 h photoperiod at 24-29° C. All pots were surface irrigated. Compounds were dissolved in a 97:3 v/v (volume per volume) mixture of acetone and dimethyl sulfoxide (DMSO) and diluted to the appropriate concentration in a final application solution containing water, acetone, isopropyl alcohol, DMSO and Agri-dex (crop oil concentrate) in a 59:23:15:1.0:1.5 v/v ratio and 0.02% w/v (weight per volume) of Triton X-155 to obtain the spray solution containing the highest application rate. The high application rate was serial diluted with the above application solution to provide delivery of the compound at rates 1/2×, 1/4× and 1/8× of the highest rate (equivalent to 4.0, 2.0, 1.0, and 0.5 kg/ha, respectively). Formulated compound (2.7 mL) was applied using a DeVilbiss® compressed air sprayer at 2-4 pounds per square inch (psi) […]. Following treatment, pots were allowed to dry before being returned to the greenhouse for the duration of the experiment and subirrigated as needed. All pots were fertilized one time per week by subirrigating with Peters Peat-Lite Special® fertilizer (20-10-20). Phytotoxicity ratings were obtained 10 d after treatment. All evaluations were made on a scale of 0 to 100 where 0 represents no activity and 100 represents complete plant death.

[2] = test system: ivyleaf morningglory (Ipomoea hederacea); experiment: Post-emergent Test I; details: 10 d after treatment, scale 0 (no activity) to 100 (complete plant death)
Description: as §1

wild oat (Avena fatua) [3] = experiment: Post-emergent Test I; details: 10 d after treatment, scale 0 (no activity) to 100 (complete plant death)
Description: as §1

[4] = test system: giant foxtail (Setaria faberi); experiment: Post-emergent Test I; details: 10 d after treatment, scale 0 (no activity) to 100 (complete plant death)
Description: as §1

[5] = test system: sunflower (Helianthus annuus); experiment: Pre-emergent Test I; details: 14 d after treatment, scale 0 (no herbicidal effect) to 100 (plant death or lack of emergence)
Description: (§2) Pre-emergent Test I: Weed seeds were obtained from commercial suppliers and planted into round plastic pots (5-inch diameter) containing silt loam soil (23% sand, 52% silt, 29% clay, 2.9% organic matter, CEC 16.6, pH 7.2). After planting, all pots were subirrigated 16 h prior to compound application. Compounds were dissolved in a 97:3 v/v mixture of acetone and DMSO and diluted to the appropriate concentration in a final application solution containing water, acetone, isopropyl alcohol, DMSO and Agri-dex (crop oil concentrate) in a 59:23:15:1.0:1.5 v/v ratio and 0.02% w/v of Triton X-155 to obtain the spray solution containing the highest application rate. The high application rate was serial diluted with the above application solution to provide delivery of the compound at rates 1/2×, 1/4× and 1/8× of the highest rate (equivalent to 4.0, 2.0, 1.0, and 0.5 kg/ha, respectively). Formulated compound (2.7 mL) was pipetted evenly over the soil surface followed by incorporation with water (15 mL). Following treatment, pots were returned to the greenhouse for the duration of the experiment. The greenhouse was programmed for an approximate 15 h photoperiod which was maintained at about 23-29° C. during the day and 22-28° C. during the night. Nutrients and water were added on a regular basis through surface irrigation and supplemental lighting was provided with overhead metal halide 1000-Watt lamps as necessary. Herbicidal effect ratings were obtained 14 d after treatment. All evaluations were made relative to appropriate controls on a scale of 0 to 100 where 0 represents no herbicidal effect and 100 represents plant death or lack of emergence from the soil.

[6] = test system: ivyleaf morningglory (Ipomoea hederacea); experiment: Pre-emergent Test I; details: 14 d after treatment, scale 0 (no herbicidal effect) to 100 (plant death or lack of emergence)
Description: as §2

wild oat (Avena fatua) [7] = experiment: Pre-emergent Test I; details: 14 d after treatment, scale 0 (no herbicidal effect) to 100 (plant death or lack of emergence)
Description: as §2

[8] = test system: pigweed (Amaranthus retroflexus); experiment: Pre-emergent Test I; details: 14 d after treatment, scale 0 (no herbicidal effect) to 100 (plant death or lack of emergence)
Description: as §2

[9] = test system: giant foxtail (Setaria faberi); experiment: Pre-emergent Test I; details: 14 d after treatment, scale 0 (no herbicidal effect) to 100 (plant death or lack of emergence)
Description: as §2

[10] = test system: pigweed (Amaranthus retroflexus); experiment: Post-emergent Test I; details: 10 d after treatment, scale 0 (no activity) to 100 (complete plant death)
Description: as §1

[11] = test system: lambsquarters (Chenopodium album); experiment: Post-emergent Test II; details: after 14 d, 0 = no injury, 100 = complete kill
Description: (§3) Post-emergent Test II: Seeds or nutlets of the desired test plant species were planted in Sun Gro Metro-Mix® 360 planting mixture, which typically has a pH of 6.0 to 6.8 and an organic matter content of about 30 percent, in plastic pots with a surface area of 64 square centimeters. When required to ensure good germination and healthy plants, a fungicide treatment and/or other chemical or physical treatment was applied. The plants were grown for 7-21 d in a greenhouse with an approximate 15 h photoperiod which was maintained at about 23-29° C. during the day and 22-28° C. during the night. Nutrients and water were added on a regular basis and supplemental lighting was provided with overhead metal halide 1000-Watt lamps as necessary. The plants were employed for testing when they reached the first or second true leaf stage.
(§4) A weighed amount, determined by the highest rate to be tested, of each test compound was placed in a 25 mL glass vial and was dissolved in 4 mL of a 97:3 v/v mixture of acetone and DMSO to obtain concentrated stock solutions. […] The concentrated stock solutions obtained were diluted with 20 mL of an aqueous mixture containing acetone, water, isopropyl alcohol, DMSO, Atplus 411F crop oil concentrate, and Triton® X-155 surfactant in a 48.5:39:10:1.5:1.0:0.02 v/v ratio to obtain spray solutions containing the highest application rates. Additional application rates were obtained by serial dilution of 12 mL of the high rate solution into a solution containing 2 mL of 97:3 v/v mixture of acetone and DMSO and 10 mL of an aqueous mixture containing acetone, water, isopropyl alcohol, DMSO, Atplus 411F crop oil concentrate, and Triton X-155 surfactant in a 48.5:39:10:1.5:1.0:0.02 v/v ratio to obtain 1/2×, 1/4×, 1/8× and 1/16× rates of the high rate. Compound requirements are based upon a 12 mL application volume at a rate of 187 liters per hectare (L/ha). Formulated compounds were applied to the plant material with an overhead Mandel track sprayer equipped with 8002E nozzles calibrated to deliver 187 L/ha over an application area of 0.503 square meters at a spray height of 18 inches (43 cm) above the average plant canopy height. Control plants were sprayed in the same manner with the solvent blank.
(§5) The treated plants and control plants were placed in a greenhouse as described above and watered by subirrigation to prevent wash-off of the test compounds. After 14 d, the condition of the test plants as compared with that of the untreated plants was determined visually and scored on a scale of 0 to 100 percent where 0 corresponds to no injury and 100 corresponds to complete kill.

[12] = test system: barnyardgrass (Echinochloa crus-galli); experiment: Post-emergent Test II; details: after 14 d, 0 = no injury, 100 = complete kill
Description: as §3, §4, §5

[13] = test system: bindweed (Polygonum convolvulus); experiment: Post-emergent Test II; details: after 14 d, 0 = no injury, 100 = complete kill
Description: as §3, §4, §5

[14] = test system: velvetleaf (Abutilon theophrasti); experiment: Post-emergent Test II; details: after 14 d, 0 = no injury, 100 = complete kill
Description: as §3, §4, §5

rice (Oryza sativa) = experiment: Post-emergent Test II; details: after 14 d, 0 = no injury, 100 = complete kill
Description: as §3, §4, §5

## CCOC(=O)C1=C(Cl)/C(=N/OS(C)(=O)=O)CC(c2ccc(Cl)cc2F)N1 (stereo not drawn) [Compound 26, 3-chloro-6-(4-chloro-2-fluorophenyl)-4-[(E)-methanesulfonyloximino]-1,4,5,6-tetrahydropyridine-2-carboxylic acid ethyl ester]
[1]; 3760 g ai/ha
  Phytotoxicity rating HELAN: 100
[2]; 3760 g ai/ha
  Phytotoxicity rating IPOHE: 100
Wild oat (Avena fatua) [3]; 3760 g ai/ha
  Phytotoxicity rating AVEFA: 95
[4]; 3760 g ai/ha
  Phytotoxicity rating SETFA: 100
[5]; 3760 g ai/ha
  Herbicidal effect rating HELAN: 70
[6]; 3760 g ai/ha
  Herbicidal effect rating IPOHE: 100
Wild oat (Avena fatua) [7]; 3760 g ai/ha
  Herbicidal effect rating AVEFA: 10
[8]; 3760 g ai/ha
  Herbicidal effect rating AMARE: 100
[9]; 3760 g ai/ha
  Herbicidal effect rating SETFA: 70

## COC(=O)C1=C(Cl)/C(=N/OS(C)(=O)=O)CC(c2ccc(Cl)cc2)N1 (stereo not drawn) [Compound 27, 3-Chloro-6-(4-chlorophenyl)-4-[(E)-methanesulfonyloximino]-1,4,5,6-tetrahydropyridine-2-carboxylic acid methyl ester]
[1]; 3960 g ai/ha
  Phytotoxicity rating HELAN: 95
[2]; 3960 g ai/ha
  Phytotoxicity rating IPOHE: 85
Wild oat (Avena fatua) [3]; 3960 g ai/ha
  Phytotoxicity rating AVEFA: 75
[10]; 3960 g ai/ha
  Phytotoxicity rating AMARE: 100
[4]; 3960 g ai/ha
  Phytotoxicity rating SETFA: 90
[5]; 3960 g ai/ha
  Herbicidal effect rating HELAN: 100
[6]; 3960 g ai/ha
  Herbicidal effect rating IPOHE: 100
Wild oat (Avena fatua) [7]; 3960 g ai/ha
  Herbicidal effect rating AVEFA: 20
[8]; 3960 g ai/ha
  Herbicidal effect rating AMARE: 100
[9]; 3960 g ai/ha
  Herbicidal effect rating SETFA: 100

## CCOC(=O)C1=C(Cl)/C(=N/OS(C)(=O)=O)CC(c2ccc(Cl)c(OC)c2F)N1 (stereo not drawn) [Compound 30, 3-Chloro-6-(4-chloro-2-fluoro-3-methoxyphenyl)-4-[(E)-methanesulfonyloximino]-1,4,5,6-tetrahydropyridine-2-carboxylic acid ethyl ester]
[1]; 3400 g ai/ha
  Phytotoxicity rating HELAN: 90
[2]; 3400 g ai/ha
  Phytotoxicity rating IPOHE: 95
Wild oat (Avena fatua) [3]; 3400 g ai/ha
  Phytotoxicity rating AVEFA: 30
[10]; 3400 g ai/ha
  Phytotoxicity rating AMARE: 100
[4]; 3400 g ai/ha
  Phytotoxicity rating SETFA: 85
[5]; 3400 g ai/ha
  Herbicidal effect rating HELAN: 100
[6]; 3400 g ai/ha
  Herbicidal effect rating IPOHE: 100
Wild oat (Avena fatua) [7]; 3400 g ai/ha
  Herbicidal effect rating AVEFA: 95
[8]; 3400 g ai/ha
  Herbicidal effect rating AMARE: 100
[9]; 3400 g ai/ha
  Herbicidal effect rating SETFA: 100

## COC(=O)C1=C(Cl)/C(=N/OS(=O)(=O)c2ccc(C)cc2)CC(c2ccc(Cl)c(OC)c2F)N1 (stereo not drawn) [Compound 31, 3-Chloro-6-(4-chloro-2-fluoro-3-methoxyphenyl)-4-[(E)-p-toluenesulfonyloximino]-1,4,5,6-tetrahydropyridine-2-carboxylic acid methyl ester]
[1]; 4000 g ai/ha
  Phytotoxicity rating HELAN: 90
[2]; 4000 g ai/ha
  Phytotoxicity rating IPOHE: 90
Wild oat (Avena fatua) [3]; 4000 g ai/ha
  Phytotoxicity rating AVEFA: 40
[4]; 4000 g ai/ha
  Phytotoxicity rating SETFA: 80
[5]; 4000 g ai/ha
  Herbicidal effect rating HELAN: 100
[6]; 4000 g ai/ha
  Herbicidal effect rating IPOHE: 100
Wild oat (Avena fatua) [7]; 4000 g ai/ha
  Herbicidal effect rating AVEFA: 10
[8]; 4000 g ai/ha
  Herbicidal effect rating AMARE: 100
[9]; 4000 g ai/ha
  Herbicidal effect rating SETFA: 10

## COC(=O)C1=C(Br)/C(=N/OS(C)(=O)=O)CC(c2ccc(Cl)c(OC)c2F)N1 (stereo not drawn) [Compound 32, 3-bromo-6-(4-chloro-2-fluoro-3-methoxyphenyl)-4-[(E)-methanesulfonyloximino]-1,4,5,6-tetrahydropyridine-2-carboxylic acid methyl ester]
[11]; 140 g ai/ha
  Visual injury score CHEAL: 100%
[12]; 140 g ai/ha
  Visual injury score ECHCG: 90%
[13]; 140 g ai/ha
  Visual injury score POLCO: 90%
[14]; 140 g ai/ha
  Visual injury score ABUTH: 100%
Rice (Oryza sativa); 140 g ai/ha
  Visual injury score ORYSA: 15%

## COC(=O)C1=C(Cl)/C(=N/OC(C)=O)CC(c2ccc(Cl)c(OC)c2F)N1 (stereo not drawn) [Compound 35, 3-chloro-6-(4-chloro-2-fluoro-3-methoxyphenyl)-4-[(E)-acetoxyoximino]-3-chloro-1,4,5,6-tetrahydropyridine-2-carboxylic acid methyl ester]
[11]; 70 g ai/ha
  Visual injury score CHEAL: 100%
[12]; 70 g ai/ha
  Visual injury score ECHCG: 90%
[13]; 70 g ai/ha
  Visual injury score POLCO: 100%
[14]; 70 g ai/ha
  Visual injury score ABUTH: 100%
Rice (Oryza sativa); 70 g ai/ha
  Visual injury score ORYSA: 0%
